One test deals with NUGC. In words: Growth inhibition of human NUGC cells at 50 ug/ml relative to control. It counts as functional. The settings on record: read-out: GI.
A further test relates to HONE1 cell line. Description: Growth inhibition of human HONE1 cells at 50 ug/ml relative to control. In kind it is functional. The settings on record: read-out: GI.
For test [1], the system named is Panel NCI-60 (60 carcinoma cell lines). Description: Cytotoxicity against human NCI60 cells at 10 uM after 48 hrs by sulforhodamine B assay. In kind it is functional, cell-based. In general terms: Sulforhodamine B stains cellular protein and so reports cell mass.

The source made the active and inactive calls. The calls are words filed in the database; no cut-off is given here.

The text below walks through data of ChEMBL document CHEMBL4145655, “Confirmation of the Revised Structure of Samoquasine A and a Proposed Structural Revision of Cherimoline” (2018).

Turning to `O=c1[nH]ccc2c1cnc1ccccc12`, the results for the inhibition of growth at 50 µg/mL in the test with NUGC and in the test with HONE1 cell line were 63% and 62%, respectively. In addition, the result in test [1] was inactive. On to `Cn1ccc2c(cnc3ccccc32)c1=O`, for which, in test [1], the outcome was inactive. With `O=c1occc2c1cnc1ccccc12`, in test [1], the result was inactive.
